Where two headings read alike, the source gives them in different places.
Assays:
[1] = in vitro; type: cell-based; conditions: human, HepG2 or HepG2.117 cells, mean value
Experimental: Cytotoxicity of the compounds was tested using HepG2 or HepG2.117 cells, incubated for 3 or 4 days in the presence of compounds. The viability of the cells was assessed using the PERKIN ELMER ATPlite Luminescence Assay System.”

[2] = tested on: HBV (HepG2.117 cell line, inducibly HBV producing); assay: Anti-HBV activity: intracellular HBV DNA by real-time PCR in HepG2.117 cells after 3 days of treatment; type: cell-based, hepatitis B virus
Experimental: The anti HBV activity was measured using the HepG2.117 cell line, a stable, inducibly HBV producing cell line, which replicates HBV in the absence of doxycycline (Tet-off system). The HepG2 cell line is available from ATCCR under number HB-8065. Transfection of the HepG2 cell line can be as described in Sun and Nassal 2006 Journal of Hepatology 45 (2006) 636-645 “Stable HepG2- and Huh7-based human hepatoma cell lines for efficient regulated expression of infectious hepatitis B virus”.
For the antiviral assay, HBV replication was induced, followed by a treatment with serially diluted compound in 96-well plates. After 3 days of treatment, the antiviral activity was determined by quantification of intracellular HBV DNA using real-time PCR and an HBV specific primer set and probe.

[3] = 3-days incubation (unmarked values), ATPlite
[4] = Hepatitis B virus, HepG2.117, 72 h, HepG2.117 cells, 3 days of treatment, intracellular HBV DNA by real-time PCR; mean value; read-out: EC50 (μM, mean value)
[5] = ATPlite, 3-days incubation (not marked with *)
[6] = Hepatitis B virus, HepG2.117, 72 h, HepG2.117 cells, intracellular HBV DNA by real-time PCR, 3 days of treatment, mean value; read-out: EC50 (μM, mean value)

In the case of COc1ccccc1-n1c(NCC2CC2)nc2c(c1=O)CCN(C(=O)c1ccc(Cl)c(Cl)c1)C2 [Compound C50, 2-[(cyclopropylmethyl)amino]-7-(3,4-dichlorobenzoyl)-3-(2-methoxyphenyl)-5,6,7,8-tetrahydropyrido[3,4-d]pyrimidin-4(3H)-one], the CC50 at 3 days [1, 3] is reported as 26.7 µM and the EC50 [2, 4] is reported as 5.85 µM.
For Cc1csc(-c2ccc(-n3c(NC(C)C)nc4c(c3=O)C[C@@H](C)N(C(=O)c3ccc(Cl)c(Cl)c3)C4)cc2)n1 [Compound C247, (6R)-7-(3,4-dichlorobenzoyl)-6-methyl-3-[4-(4-methyl-1,3-thiazol-2-yl)phenyl]-2-[(propan-2-yl)amino]-5,6,7,8-tetrahydropyrido[3,4-d]pyrimidin-4(3H)-one], the CC50 at 3 days [1, 3] was > 50 µM and the EC50 [2, 4] was 0.12 µM.
In the case of CNC(=O)c1ccc(-n2c(NC(C)(C)C3CC3)nc3c(c2=O)C[C@@H](C)N(C(=O)c2ccc(Cl)c(Cl)c2)C3)cc1 [Compound C396], the CC50 at 3 days [1, 5] is reported as 39.5 µM and the EC50 [2, 6] is reported as 0.08 µM.
With CNC(=O)c1ccc(-n2c(N[C@@H](C)c3ccc(F)cc3F)nc3c(c2=O)C[C@@H](C)N(C(=O)c2ccc(Cl)c(Cl)c2)C3)cc1 (single isomer, unassigned) [Compound C689b] the CC50 at 3 days [1, 5] was 27.3 µM and the EC50 [2, 6] was 0.46 µM.
In the case of CNC(=O)c1ccc(-n2c(N[C@@H](C)c3cccnc3)nc3c(c2=O)C[C@@H](C)N(C(=O)c2ccc(Cl)c(Cl)c2)C3)cc1 (single isomer, unassigned) [Compound C377b], the CC50 at 3 days [1, 3] is reported as > 50 µM and the EC50 [2, 4] is reported as 3.95 µM.
For CNC(=O)c1ccc(-n2c(NC(C)C)nc3c(c2=O)C[C@@H](C)N(C(=O)c2ccc4c(c2)C=CS4(=O)=O)C3)cc1 [Compound C604], the CC50 at 3 days [1, 5] was > 50 µM and the EC50 [2, 6] was > 25 µM.
In the case of CNC(=O)c1ccc(-n2c(NC(C)C)nc3c(c2=O)C[C@@H](C)N(C(=O)c2ccc(Cl)c(Cl)c2)C3)cc1Cl [Compound C338, 2-chloro-4-[(6R)-7-(3,4-dichlorobenzoyl)-6-methyl-4-oxo-2-[(propan-2-yl)amino]-5,6,7,8-tetrahydropyrido[3,4-d]pyrimidin-3(4H)-yl]-N-methylbenzamide], the CC50 at 3 days [1, 3] is reported as > 50 µM and the EC50 [2, 4] is reported as 0.1 µM.
In the case of COc1ccc(CNc2nc3c(c(=O)n2-c2ccc(S(C)(=O)=O)cc2)C[C@H](c2ccc(F)cc2)N(C(=O)c2ccc(Cl)c(Cl)c2)C3)cc1 (single isomer, unassigned) [Compound C109B, (6*R)-7-(3,4-dichlorobenzoyl)-6-(4-fluorophenyl)-3-[4-(methanesulfonyl)phenyl]-2-{[(4-methoxyphenyl)methyl]amino}-5,6,7,8-tetrahydropyrido[3,4-d]pyrimidin-4(3H)-one], the CC50 at 3 days [1, 3] is reported as > 50 µM.
With CC(C)Nc1nc2c(c(=O)n1-c1ccc(S(C)(=O)=O)cc1)CCN(C(=O)c1cc3cnccc3[nH]1)C2 [Compound C369] the CC50 at 3 days [1, 3] was > 50 µM.
For CC(C)Nc1nc2c(c(=O)n1-c1ccc(S(C)(=O)=O)cc1)CCN(C(=O)c1cc3cc(Cl)ccc3[nH]1)C2 [Compound C357], the CC50 at 3 days [1, 3] was > 50 µM.
In the case of CC(C)Nc1nc2c(c(=O)n1-c1ccc(C(=O)N3CCOCC3)cc1)C[C@@H](C)N(C(=O)c1ccc(Cl)c(C(F)(F)F)c1)C2 [Compound C649], the CC50 at 3 days [1, 5] is reported as > 50 µM.
Work on CNC(=O)c1ccc(-n2c(N[C@@H](C)c3ccc(C(F)(F)F)cc3)nc3c(c2=O)C[C@@H](C)N(C(=O)c2ccc(Cl)c(C(F)(F)F)c2)C3)cc1 [Compound C650] yielded an EC50 [2, 6] of 0.05 µM.
With CNC(=O)c1ccc(-n2c(N[C@@H](C)c3ccc(C(F)(F)F)c(F)c3)nc3c(c2=O)C[C@@H](C)N(C(=O)c2ccc(Cl)c(Cl)c2)C3)cc1 (single isomer, unassigned) [Compound C659b] the EC50 [2, 6] was > 2.5 µM.
With CNC(=O)c1ncc(-n2c(NC)nc3c(c2=O)C[C@@H](C)N(C(=O)c2ccc(Cl)c(C(F)(F)F)c2)C3)n1C [Compound C702] the CC50 at 3 days ([1]; 3-days incubation (unmarked values), ATPlite viability) was > 50 µM.
For CNC(=O)c1ccc(-n2c(NCc3cnn(-c4ccccc4)n3)nc3c(c2=O)C[C@@H](C)N(C(=O)c2ccc(Cl)c(Cl)c2)C3)cc1 [Compound C464], the EC50 [2, 6] was 0.62 µM.
In the case of CC(C)Nc1nc2c(c(=O)n1-c1ccc(S(C)(=O)=O)cc1)CCN(C(=O)c1cc3ncccc3[nH]1)C2 [Compound C368], the CC50 at 3 days [1, 3] is reported as > 50 µM.
